Test: Capillary wicking time of laminated membrane strip (hydrophilicity)
Type: physicochemical
Source text: The terms "hydrophilic" and "wettable" are frequently used herein and are used interchangeably as antonyms for "hydrophobic". A number of procedures can be used to measure hydrophilicity. Since the membranes of the preferred embodiment resemble thin layer chromatograhic strips, hydrophilicity is here measured as the rate at which the solvent front traverses the membrane strips. Darcy's law provides a rate by relating the distance the front travels to the time t. For a fixed distance, L, the relevant measurement is the time taken for the front to reach L. A relative measure of hydrophilicity is given by comparing the time or "wicking" rate of treated laminated membranes against the time or wicking rate of untreated laminated membranes. Although relative hydrophilicity is sufficient, for purposes of this invention a membrane is considered "hydrophilic" if the flow rate is such that the front traverses a length compatible with visualizing a result (ie., 2 - 10 cm) in a time consistent with rapid diagnostic assays, (ie., less than 10 minutes and preferably less than 5 minutes).
[…] At various time intervals (0, 7, 14, 21, 28, 56, 84, 112, etc days) the hydrophilicity of the membrane was tested by immersing a strip of laminated membrane 1-3 mm into a test solution (0.1M Tris pH 7.4, 0.9% NaCl, phenol red) and measuring the time required for the solution front to migrate a distance of 5.4 cm. A more hydrophilic membrane requires a shorter time for the liquid to move 5.4 cm.

[1] = 0 days storage at 45° C, membrane treated with surfactant as example 4 Part E, laminated with Flexcon PM150C/V23/Poly SC9
[2] = 7 days storage at 45° C, surfactant-treated (example 4 Part E), Poly SC9 laminate
[3] = 14 days storage at 45° C, surfactant-treated (example 4 Part E), Poly SC9 laminate
[4] = 21 days storage at 45° C, surfactant-treated (example 4 Part E), Poly SC9 laminate
[5] = 28 days storage at 45° C, surfactant-treated (example 4 Part E), Poly SC9 laminate

| SMILES | membrane wicking rate as a result of the treatment (Part B: surfactant 0.1% w/v from isopropanol) | Wicking Time to traverse 5.4 cm strip [1] | Wicking Time to traverse 5.4 cm strip [2] | Wicking Time to traverse 5.4 cm strip [3] | Wicking Time to traverse 5.4 cm strip [4] | Wicking Time to traverse 5.4 cm strip [5] |
| --- | --- | --- | --- | --- | --- | --- |
| CCCCCCCCCCCCCCCCO [cetyl alcohol] | decreased | – | – | – | – | – |
| CCCCCCCCCCS(=O)(=O)O [decane sulfonic acid] | – | 5.7 min | 6.4 min | 6.0 min | 6.3 min | 6.2 min |
| CCCCCCCCCCCCS(=O)(=O)O [dodecane sulfonic acid] | – | 6.2 min | 6.4 min | 6.0 min | 6.3 min | 6.3 min |
| CCCCCCCS(=O)(=O)O [heptane sulfonic acid] | – | 4.9 min | 5.3 min | 5.2 min | 5.2 min | 5.3 min |
| CCCCCCCCS(=O)(=O)O [octane sulfonic acid] | – | 5.1 min | 5.6 min | 5.4 min | 5.6 min | 5.7 min |
| CCCCCS(=O)(=O)O [pentane sulfonic acid] | – | 4.1 min | 5.5 min | 5.4 min | 5.6 min | 5.6 min |
| CCCCCCCCCCCCOS(=O)(=O)[O-].[Na+] [sodium dodecyl sulfate] | – | 6.3 min | 7.1 min | 7.0 min | 6.4 min | 6.0 min |

Reference: patent publication EP0420021B1, “Hydrophilic laminated porous membranes and methods of preparing same” (ABBOTT LABORATORIES, priority 1989, dated 1991)
